Results: patent US20230072683A1, “PYRIDO-PYRIMIDIN DERIVATIVES AND PHARMACEUTICAL COMPOSITION, FOR USE IN PREVENTING OR TREATING PI3 KINASE RELATED DISEASES, COMPRISING SAME AS ACTIVE INGREDIENT” (BORYUNG PHARMACEUTICAL CO., LTD, priority 2019, published 2023)
Like-named read-outs stand apart in the source and are kept apart here.

Tests used:
DNA-PK(h) = DNA-PK(h) (Homo sapiens, UniProt P78527); assay: Evaluation of inhibitory activity against DNA-PK (HTRF kinase assay, GST-cMyc-p53 substrate); type: biochemical; conditions: for inhibition at 0.1 µM: read-out: EXP_VALUE(% Inhibition) DNA-PK(h) 0.1 μM; for inhibition at 0.01 µM: compound concentration 0.01 μM, read-out: EXP_VALUE(% Inhibition) DNA-PK(h) 0.01 μM
Summary of the method: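 p53 Ser15 phosphorylation by human DNA-PK was measured by time-resolved FRET ratio (665/620 nm ×10000) using Eu-labelled anti-phospho-Ser15 and d2 anti-GST antibodies. Substrate GST-cMyc-p53 at 50 μM; Mg/ATP-initiated, 30 min at room temperature, EDTA stop.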

[1] = target: PI3K-δ (PI3K(p1108/p857) (h)) (Homo sapiens, UniProt O00329); assay: Evaluation of inhibitory activity against PI3K-δ (HTRF kinase assay); type: biochemical; conditions: for inhibition at 0.1 µM: read-out: EXP_VALUE(% Inhibition) PI3K-δ 0.1 μM; for inhibition at 0.01 µM: compound concentration 0.01 μM, read-out: EXP_VALUE(% Inhibition) PI3K-δ 0.01 μM
PI3K-δ (PI3K(p1108/p857) (h)), sequence (O00329 whole entry, the tested form may be a part): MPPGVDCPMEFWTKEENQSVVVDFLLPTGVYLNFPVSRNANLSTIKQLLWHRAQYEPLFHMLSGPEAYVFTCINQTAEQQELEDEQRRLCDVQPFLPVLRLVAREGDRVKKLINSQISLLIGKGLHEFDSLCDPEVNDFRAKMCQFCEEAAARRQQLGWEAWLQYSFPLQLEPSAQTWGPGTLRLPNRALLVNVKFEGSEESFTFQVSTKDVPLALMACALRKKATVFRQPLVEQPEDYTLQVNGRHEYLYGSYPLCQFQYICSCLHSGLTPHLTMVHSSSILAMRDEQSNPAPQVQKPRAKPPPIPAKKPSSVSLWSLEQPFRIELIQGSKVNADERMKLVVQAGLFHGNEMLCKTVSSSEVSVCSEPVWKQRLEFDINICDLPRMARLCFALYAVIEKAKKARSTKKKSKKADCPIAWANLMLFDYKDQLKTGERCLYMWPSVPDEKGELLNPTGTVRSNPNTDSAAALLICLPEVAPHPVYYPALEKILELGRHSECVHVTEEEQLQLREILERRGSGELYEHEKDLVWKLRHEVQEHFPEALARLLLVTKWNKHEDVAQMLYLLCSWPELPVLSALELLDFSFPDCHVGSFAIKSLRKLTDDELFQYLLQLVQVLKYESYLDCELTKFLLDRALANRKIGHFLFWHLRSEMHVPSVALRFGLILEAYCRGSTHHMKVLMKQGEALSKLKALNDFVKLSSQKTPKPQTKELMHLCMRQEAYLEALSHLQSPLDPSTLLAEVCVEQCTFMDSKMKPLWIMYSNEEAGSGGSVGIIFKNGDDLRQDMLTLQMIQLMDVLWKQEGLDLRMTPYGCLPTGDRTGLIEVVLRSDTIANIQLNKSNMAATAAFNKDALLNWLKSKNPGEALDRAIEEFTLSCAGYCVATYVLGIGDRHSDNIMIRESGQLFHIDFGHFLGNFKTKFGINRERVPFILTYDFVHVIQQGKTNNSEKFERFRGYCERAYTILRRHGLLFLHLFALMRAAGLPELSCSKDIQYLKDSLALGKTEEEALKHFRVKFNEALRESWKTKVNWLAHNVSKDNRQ
PI3K-δ (PI3K(p1108/p857) (h)), sequence (P27986 whole entry partner, the tested form may be a part): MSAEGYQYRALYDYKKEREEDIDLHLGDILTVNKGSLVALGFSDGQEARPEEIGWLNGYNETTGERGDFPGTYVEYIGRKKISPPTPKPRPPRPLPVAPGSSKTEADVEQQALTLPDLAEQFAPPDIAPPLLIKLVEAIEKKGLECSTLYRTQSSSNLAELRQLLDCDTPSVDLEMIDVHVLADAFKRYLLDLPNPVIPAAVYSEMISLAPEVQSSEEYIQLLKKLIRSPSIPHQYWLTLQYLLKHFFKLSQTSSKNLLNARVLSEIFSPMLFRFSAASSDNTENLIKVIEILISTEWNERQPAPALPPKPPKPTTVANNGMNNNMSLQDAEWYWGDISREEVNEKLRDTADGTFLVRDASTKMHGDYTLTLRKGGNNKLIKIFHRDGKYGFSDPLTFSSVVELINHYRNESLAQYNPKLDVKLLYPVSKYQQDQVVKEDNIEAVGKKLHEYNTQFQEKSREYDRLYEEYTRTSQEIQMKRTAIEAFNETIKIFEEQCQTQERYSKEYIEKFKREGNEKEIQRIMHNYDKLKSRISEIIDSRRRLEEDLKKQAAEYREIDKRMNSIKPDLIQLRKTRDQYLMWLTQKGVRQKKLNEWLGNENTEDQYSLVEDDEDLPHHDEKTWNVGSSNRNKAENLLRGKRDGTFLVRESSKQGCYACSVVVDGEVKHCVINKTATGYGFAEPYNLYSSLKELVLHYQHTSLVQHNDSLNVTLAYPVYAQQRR
Summary of the method: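 HTRF read-out (665/620 nm ratio ×10000) used Eu-labelled anti-GST, GST-tagged GRP1 PH domain and streptavidin-allophycocyanin after EDTA/PIP3 stop.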

SMILES	inhibition at 0.1 µM (DNA-PK(h); compound at 0.1 μM)	inhibition at 0.1 µM ([1]; compound at 0.1 μM)	inhibition at 0.01 µM (DNA-PK(h))	inhibition at 0.01 µM [1]	inhibition at 0.1 µM (DNA-PK(h); compound concentration 0.1 μM)	inhibition at 0.1 µM ([1]; compound concentration 0.1 μM)
CCOc1ncc(-c2cccc3cc([C@H](C)Nc4ncnc5[nH]ccc(=O)c45)n(-c4ccccc4)c(=O)c23)cn1 [Example 384, (S)-4-((1-(8-(2-ethoxypyrimidin-5-yl)-1-oxo-2-phenyl-1,2-dihydroisoquinolin-3-yl)ethyl)amino)pyrido[2,3-d]pyrimidin-5(8H)-one]	40%	85%				
C[C@H](Nc1ncnc2[nH]ccc(=O)c12)c1c(Cl)c2cccc(-c3cnc(S(C)(=O)=O)nc3)c2c(=O)n1-c1ccccc1 [Example 392, (S)-4-((1-(4-chloro-8-(2-(methylsulfonyl)pyrimidin-5-yl)-1-oxo-2-phenyl-1,2-dihydroisoquinolin-3-yl)ethyl)amino)pyrido[2,3-d]pyrimidin-5(8H)-one]	45%	94%				
C[C@H](Nc1ncnc2[nH]ccc(=O)c12)c1c(Cl)c2cccc(S(=O)(=O)c3ccncc3)c2c(=O)n1-c1ccccc1 [Example 391, (S)-4-((1-(4-chloro-1-oxo-2-phenyl-8-(pyridin-4-ylsulfonyl)-1,2-dihydroisoquinolin-3-yl)ethyl)amino)pyrido[2,3-d]pyrimidin-5(8H)-one]	22%	98%				
C[C@H](Nc1ncnc2[nH]ccc(=O)c12)c1c(Cl)c2cccc(-c3ccc(Oc4ccccc4)nc3)c2c(=O)n1-c1ccccc1 [Example 185, (S)-4-((1-(4-chloro-1-oxo-8-(6-phenoxypyridin-3-yl)-2-phenyl-1,2-dihydroisoquinolin-3-yl)ethyl)amino)pyrido[2,3-d]pyrimidin-5(8H)-one]			33%	95%		
C[C@H](Nc1ncnc2[nH]ccc(=O)c12)c1c(Cl)c2cccc(-c3ccc4nccnc4c3)c2c(=O)n1-c1ccccc1 [Example 137, (S)-4-((1-(4-chloro-1-oxo-2-phenyl-8-(quinoxalin-6-yl)-1,2-dihydroisoquinolin-3-yl)ethyl)amino)pyrido[2,3-d]pyrimidin-5(8H)-one]			87%	84%	100%	92%
C[C@H](Nc1ncnc2[nH]ccc(=O)c12)c1c(Cl)c2cccc(C(=O)NCc3cccs3)c2c(=O)n1-c1ccccc1 [Example 278, (S)-4-chloro-1-oxo-3-(1-((5-oxo-5,8-dihydropyrido[2,3-d]pyrimidin-4-yl)amino)ethyl)-2-phenyl-N-(thiophen-2-ylmethyl)-1,2-dihydroisoquinoline-8-carboxamide]			6%	104%		
C[C@H](Nc1ncnc2[nH]ccc(=O)c12)c1c(Cl)c2cccc(S(=O)(=O)c3nc[nH]n3)c2c(=O)n1-c1ccccc1 [Example 401, (S)-4-((1-(8-((1H-1,2,4-triazol-3-yl)sulfonyl)-4-chloro-1-oxo-2-phenyl-1,2-dihydroisoquinolin-3-yl)ethyl)amino)pyrido[2,3-d]pyrimidin-5(8H)-one]	24%	42%				
C[C@H](Nc1ncnc2[nH]ccc(=O)c12)c1c(Cl)c2cccc(N3CCN(c4ccccc4)CC3)c2c(=O)n1-c1ccccc1 [Example 326, (S)-4-((1-(4-chloro-1-oxo-2-phenyl-8-(4-phenylpiperazin-1-yl)-1,2-dihydroisoquinolin-3-yl)ethyl)amino)pyrido[2,3-d]pyrimidin-5(8H)-one]			-4%	17%	24%	51%
C[C@H](Nc1ncnc2[nH]ccc(=O)c12)c1c(Cl)c2cccc(-c3ccc(C4CCOCC4)cc3)c2c(=O)n1-c1ccccc1 [Example 176, (S)-4-((1-(4-chloro-1-oxo-2-phenyl-8-(4-(tetrahydro-2H-pyran-4-yl)phenyl)-1,2-dihydroisoquinolin-3-yl)ethyl)amino)pyrido[2,3-d]pyrimidin-5(8H)-one]			48%	19%		
C[C@H](Nc1ncnc2[nH]ccc(=O)c12)c1c(Cl)c2cccc(N3CCN(c4ccncc4)CC3)c2c(=O)n1-c1ccccc1 [Example 9, (S)-4-((1-(4-chloro-1-oxo-2-phenyl-8-(4-(pyridin-4-yl)piperazin-1-yl)-1,2-dihydroisoquinolin-3-yl)ethyl)amino)pyrido[2,3-d]pyrimidin-5(8H)-one]			60%	50%	92%	61%
C[C@H](Nc1ncnc2[nH]ccc(=O)c12)c1c(Cl)c2cccc(-c3cc(F)cc(F)c3)c2c(=O)n1-c1ccccc1 [Example 124, (S)-4-((1-(4-chloro-8-(3,5-difluorophenyl)-1-oxo-2-phenyl-1,2-dihydroisoquinolin-3-yl)ethyl)amino)pyrido[2,3-d]pyrimidin-5(8H)-one]			44%	83%	86%	99%
C[C@H](Nc1ncnc2[nH]ccc(=O)c12)c1c(Cl)c2cccc(-c3cncc(S(C)(=O)=O)c3)c2c(=O)n1-c1ccccc1 [Example 218, (S)-4-((1-(4-chloro-8-(5-(methylsulfonyl)pyridin-3-yl)-1-oxo-2-phenyl-1,2-dihydroisoquinolin-3-yl)ethyl)amino)pyrido[2,3-d]pyrimidin-5(8H)-one]			85%	99%		
CC(C)Nc1ncc(-c2cccc3c(Cl)c([C@H](C)Nc4ncnc5[nH]ccc(=O)c45)n(-c4ccccc4)c(=O)c23)cn1 [Example 220, (S)-4-((1-(4-chloro-8-(2-(isopropylamino)pyrimidin-5-yl)-1-oxo-2-phenyl-1,2-dihydroisoquinolin-3-yl)ethyl)amino)pyrido[2,3-d]pyrimidin-5(8H)-one]			73%	87%		
C[C@H](Nc1ncnc2[nH]ccc(=O)c12)c1c(Cl)c2cccc(N(C)c3ccccn3)c2c(=O)n1-c1ccccc1 [Example 349, (S)-4-((1-(4-chloro-8-(methyl(pyridin-2-yl)amino)-1-oxo-2-phenyl-1,2-dihydroisoquinolin-3-yl)ethyl)amino)pyrido[2,3-d]pyrimidin-5(8H)-one]			15%	72%		
CCC[S@@](=N)(=O)c1cccc2c(Cl)c([C@H](C)Nc3ncnc4[nH]ccc(=O)c34)n(-c3ccccc3)c(=O)c12 [Example 408, 4-(((S)-1-(4-chloro-1-oxo-2-phenyl-8-((R)-propylsulfonimidoyl)-1,2-dihydroisoquinolin-3-yl)ethyl)amino)pyrido[2,3-d]pyrimidin-5(8H)-one]	28%	71%				

Now from value to compound:

inhibition at 0.1 µM (DNA-PK(h); compound at 0.1 μM)	inhibition at 0.1 µM ([1]; compound at 0.1 μM)	inhibition at 0.01 µM (DNA-PK(h))	inhibition at 0.01 µM [1]	inhibition at 0.1 µM (DNA-PK(h); compound concentration 0.1 μM)	inhibition at 0.1 µM ([1]; compound concentration 0.1 μM)	SMILES
		32%	70%			C[C@H](Nc1ncnc2[nH]ccc(=O)c12)c1c(Cl)c2cccc(-c3cncnc3C3CCCC3)c2c(=O)n1-c1ccccc1 [Example 59, (S)-4-((1-(4-chloro-8-(4-cyclopentylpyrimidin-5-yl)-1-oxo-2-phenyl-1,2-dihydroisoquinolin-3-yl)ethyl)amino)pyrido[2,3-d]pyrimidin-5(8H)-one]
		56%	73%			C[C@H](Nc1ncnc2[nH]ccc(=O)c12)c1c(Cl)c2cccc(-c3cncc(N4CCOCC4)n3)c2c(=O)n1-c1ccccc1 [Example 210, (S)-4-((1-(4-chloro-8-(6-morpholinopyrazin-2-yl)-1-oxo-2-phenyl-1,2-dihydroisoquinolin-3-yl)ethyl)amino)pyrido[2,3-d]pyrimidin-5(8H)-one]
		63%	81%			C[C@H](Nc1ncnc2[nH]ccc(=O)c12)c1c(Cl)c2cccc(-c3ccc(OC4CCOCC4)nc3)c2c(=O)n1-c1ccccc1 [Example 162, (S)-4-((1-(4-chloro-1-oxo-2-phenyl-8-(6-((tetrahydro-2H-pyran-4-yl)oxy)pyridin-3-yl)-1,2-dihydroisoquinolin-3-yl)ethyl)amino)pyrido[2,3-d]pyrimidin-5(8H)-one]
		78%	86%	100%	97%	C[C@H](Nc1ncnc2[nH]ccc(=O)c12)c1c(Cl)c2cccc(-c3cnn(C4CC4)c3)c2c(=O)n1-c1ccccc1 [Example 96, (S)-4-((1-(4-chloro-8-(1-cyclopropyl-1H-pyrazol-4-yl)-1-oxo-2-phenyl-1,2-dihydroisoquinolin-3-yl)ethyl)amino)pyrido[2,3-d]pyrimidin-5(8H)-one]
		43%	79%			C[C@H](Nc1ncnc2[nH]ccc(=O)c12)c1c(Cl)c2cccc(-c3cnc(C#N)nc3)c2c(=O)n1-c1ccccc1 [Example 44, (S)-5-(4-chloro-1-oxo-3-(1-((5-oxo-5,8-dihydropyrido[2,3-d]pyrimidin-4-yl)amino)ethyl)-2-phenyl-1,2-dihydroisoquinolin-8-yl)pyrimidine-2-carbonitrile]
		52%	57%			C[C@H](Nc1ncnc2[nH]ccc(=O)c12)c1c(Cl)c2cccc(-c3cnc(N4CCOCC4)cn3)c2c(=O)n1-c1ccccc1 [Example 207, (S)-4-((1-(4-chloro-8-(5-morpholinopyrazin-2-yl)-1-oxo-2-phenyl-1,2-dihydroisoquinolin-3-yl)ethyl)amino)pyrido[2,3-d]pyrimidin-5(8H)-one]
